PMC9271048, “Probing strigolactone perception mechanisms with rationally designed small-molecule agonists stimulating germination of root parasitic weeds” (Nature Communications, 2022)
Where two headings read alike, the source gives them in different places.

Columns and labels:
Type in all cases: biochemical
[1] = molecular target: ShHTL7 T124K (Striga hermonthica, UniProt A0A0M3PNA2); test: YLG competitive inhibition, ShHTL7 mutant T124K; settings: read-out: IC50 (YLG), ShHTL7 mutant, source data average, Supplementary Fig. 20b
Description: (§1) To clarify the dynamics of how the catalytic triad affects hydrolysis by ShHTL7, we performed MD simulations to study the differences between (R)-4a and (S)-4a (Supplementary Fig. 21). […] To further characterize our computational models, we performed mutation studies of the key residues in the active pockets that may have interactions with our molecules. Indeed, a number of the mutations of specific residues altered the IC50 values, supporting our simulated models (Supplementary Fig. 20b).
(§2) The excitation and emission wavelengths of YLG are 480 and 520 nm, respectively. We used a fluorescence spectrophotometer (CARY Eclipse) to detect the fluorescence intensity change of YLG during the enzymatic hydrolysis assay process. All the testing compounds and YLG were dissolved in DMSO and prepared as stock solutions just before use. […] The changes of fluorescence at 520 nm of each well were recorded every 1 min for 30 min. Using the reaction mixture without adding enzyme and tested compounds as the background control. After subtracting the background hydrolysis, a linear fluorescence increase in 8 min was used for further inspection. The IC50 values were determined via fitting relative inhibition percentages with the varying concentrations of compounds in Microsoft Excel.
(§3) Supplementary Fig. 20. […]

[2] = molecular target: ShHTL7 Y26F (Striga hermonthica, UniProt A0A0M3PNA2, Y26F); test: YLG competitive inhibition, ShHTL7 mutant Y26F
Description: as §1, §2, §3

[3] = molecular target: ShHTL7 S95C (Striga hermonthica, UniProt A0A0M3PNA2, S95C); test: YLG competitive inhibition, ShHTL7 mutant S95C
Description: as §1, §2, §3

[4] = molecular target: ShHTL7 L161M (Striga hermonthica, UniProt A0A0M3PNA2, L161M); test: YLG competitive inhibition, ShHTL7 mutant L161M
Description: as §1, §2, §3

[5] = molecular target: ShHTL7 T157Y (Striga hermonthica, UniProt A0A0M3PNA2, T157Y); test: YLG competitive inhibition, ShHTL7 mutant T157Y
Description: as §1, §2, §3

[6] = molecular target: ShHTL7 F134K (Striga hermonthica, UniProt A0A0M3PNA2, F134K); test: YLG competitive inhibition, ShHTL7 mutant F134K
Description: as §1, §2, §3

[7] = molecular target: ShHTL7 T142L (Striga hermonthica, UniProt A0A0M3PNA2, T142L); test: YLG competitive inhibition, ShHTL7 mutant T142L
Description: as §1, §2, §3

[8] = molecular target: ShHTL7 F134A (Striga hermonthica, UniProt A0A0M3PNA2, F134A); test: YLG competitive inhibition, ShHTL7 mutant F134A
Description: as §1, §2, §3

[9] = molecular target: ShHTL7 T190F (Striga hermonthica, UniProt A0A0M3PNA2, T190F); test: YLG competitive inhibition, ShHTL7 mutant T190F
Description: as §1, §2, §3

[10] = molecular target: T1, AtD14 (Arabidopsis thaliana, UniProt Q9SQR3); test: Competitive inhibition of AtD14 with YLG as substrate
T1 construct: His tag; made in house; host or cells: E. coli BL21
T1 sequence (Q9SQR3 1-267): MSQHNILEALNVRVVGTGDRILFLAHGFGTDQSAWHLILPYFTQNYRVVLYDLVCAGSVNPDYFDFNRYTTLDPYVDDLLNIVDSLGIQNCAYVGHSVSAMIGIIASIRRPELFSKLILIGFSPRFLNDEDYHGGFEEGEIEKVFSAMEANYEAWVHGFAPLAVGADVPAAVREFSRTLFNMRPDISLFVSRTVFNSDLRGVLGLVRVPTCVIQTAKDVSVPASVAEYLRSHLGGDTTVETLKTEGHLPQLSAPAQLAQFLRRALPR
Method: as §2

[11] = molecular target: ShHTL7 M219V (Striga hermonthica, UniProt A0A0M3PNA2, M219V); test: YLG competitive inhibition, ShHTL7 mutant M219V
Description: as §1, §2, §3

[12] = molecular target: ShHTL7 T121S (Striga hermonthica, UniProt A0A0M3PNA2, T121S); test: YLG competitive inhibition, ShHTL7 mutant T121S
Description: as §1, §2, §3

[13] = YLG as the substrate, read-out: Competitive AtD14 inhibitory activity IC50

ShHTL7 L161M, sequence (A0A0M3PNA2 whole entry L161M): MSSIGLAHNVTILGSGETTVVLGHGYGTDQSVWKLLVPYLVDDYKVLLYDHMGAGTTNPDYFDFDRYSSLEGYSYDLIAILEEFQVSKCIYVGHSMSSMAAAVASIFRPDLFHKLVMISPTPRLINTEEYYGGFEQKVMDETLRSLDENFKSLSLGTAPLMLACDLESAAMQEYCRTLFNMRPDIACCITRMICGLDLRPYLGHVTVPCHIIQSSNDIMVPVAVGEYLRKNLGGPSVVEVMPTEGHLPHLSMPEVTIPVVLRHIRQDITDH
ShHTL7 M219V, sequence (A0A0M3PNA2 whole entry M219V): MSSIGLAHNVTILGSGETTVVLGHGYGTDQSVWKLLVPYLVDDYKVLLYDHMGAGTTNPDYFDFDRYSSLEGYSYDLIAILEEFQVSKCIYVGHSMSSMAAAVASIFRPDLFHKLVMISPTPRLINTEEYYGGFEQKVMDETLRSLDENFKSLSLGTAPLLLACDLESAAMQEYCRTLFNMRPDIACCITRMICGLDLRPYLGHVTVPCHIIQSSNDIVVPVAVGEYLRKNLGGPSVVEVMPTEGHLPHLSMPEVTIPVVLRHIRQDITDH
ShHTL7 T157Y, sequence (A0A0M3PNA2 whole entry T157Y): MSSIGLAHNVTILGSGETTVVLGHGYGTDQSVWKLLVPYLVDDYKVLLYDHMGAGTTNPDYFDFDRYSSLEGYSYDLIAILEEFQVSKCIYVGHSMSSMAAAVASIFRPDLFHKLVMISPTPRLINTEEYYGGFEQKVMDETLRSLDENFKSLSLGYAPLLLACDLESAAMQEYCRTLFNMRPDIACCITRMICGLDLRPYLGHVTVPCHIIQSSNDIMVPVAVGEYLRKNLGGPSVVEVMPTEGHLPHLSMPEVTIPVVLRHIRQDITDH
ShHTL7 T142L, sequence (A0A0M3PNA2 whole entry T142L): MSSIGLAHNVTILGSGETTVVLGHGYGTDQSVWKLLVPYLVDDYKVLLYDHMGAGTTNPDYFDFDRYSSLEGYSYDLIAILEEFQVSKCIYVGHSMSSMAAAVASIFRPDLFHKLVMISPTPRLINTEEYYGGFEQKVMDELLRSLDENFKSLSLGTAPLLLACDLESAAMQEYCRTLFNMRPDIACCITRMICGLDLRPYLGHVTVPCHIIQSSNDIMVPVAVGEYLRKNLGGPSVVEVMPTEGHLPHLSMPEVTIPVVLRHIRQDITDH
ShHTL7 T190F, sequence (A0A0M3PNA2 whole entry T190F): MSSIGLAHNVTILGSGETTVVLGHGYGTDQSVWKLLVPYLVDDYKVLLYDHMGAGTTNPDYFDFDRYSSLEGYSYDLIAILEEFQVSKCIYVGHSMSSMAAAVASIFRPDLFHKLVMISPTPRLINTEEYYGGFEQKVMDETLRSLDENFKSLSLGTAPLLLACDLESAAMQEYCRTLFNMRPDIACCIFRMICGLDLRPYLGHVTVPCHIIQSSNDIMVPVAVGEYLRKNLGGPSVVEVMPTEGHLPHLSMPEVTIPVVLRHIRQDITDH
ShHTL7 T121S, sequence (A0A0M3PNA2 whole entry T121S): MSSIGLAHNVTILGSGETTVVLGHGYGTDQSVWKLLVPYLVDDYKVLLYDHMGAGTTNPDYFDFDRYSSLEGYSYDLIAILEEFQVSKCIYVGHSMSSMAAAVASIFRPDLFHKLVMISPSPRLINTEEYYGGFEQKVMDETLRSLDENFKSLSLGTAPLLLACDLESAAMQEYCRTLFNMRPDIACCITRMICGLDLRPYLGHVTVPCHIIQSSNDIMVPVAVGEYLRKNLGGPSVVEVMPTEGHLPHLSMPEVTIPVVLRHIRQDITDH
ShHTL7 F134A, sequence (A0A0M3PNA2 whole entry F134A): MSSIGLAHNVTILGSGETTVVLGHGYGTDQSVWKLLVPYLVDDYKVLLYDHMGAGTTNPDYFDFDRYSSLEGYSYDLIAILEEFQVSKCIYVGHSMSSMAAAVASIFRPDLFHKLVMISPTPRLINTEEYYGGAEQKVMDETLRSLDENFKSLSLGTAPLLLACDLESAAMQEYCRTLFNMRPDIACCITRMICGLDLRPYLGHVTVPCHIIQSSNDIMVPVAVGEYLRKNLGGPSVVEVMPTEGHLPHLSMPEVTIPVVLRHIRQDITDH
ShHTL7 S95C, sequence (A0A0M3PNA2 whole entry S95C): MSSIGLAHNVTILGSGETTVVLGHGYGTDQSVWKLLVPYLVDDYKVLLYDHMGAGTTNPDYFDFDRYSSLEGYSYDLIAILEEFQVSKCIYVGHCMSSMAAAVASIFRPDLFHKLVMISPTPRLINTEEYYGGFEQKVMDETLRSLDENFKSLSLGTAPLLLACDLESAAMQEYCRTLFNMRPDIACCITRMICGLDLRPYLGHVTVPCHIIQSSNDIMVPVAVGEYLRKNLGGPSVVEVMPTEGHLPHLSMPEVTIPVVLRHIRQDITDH
ShHTL7 T124K, sequence (A0A0M3PNA2 entry or part of it, stated change not applied): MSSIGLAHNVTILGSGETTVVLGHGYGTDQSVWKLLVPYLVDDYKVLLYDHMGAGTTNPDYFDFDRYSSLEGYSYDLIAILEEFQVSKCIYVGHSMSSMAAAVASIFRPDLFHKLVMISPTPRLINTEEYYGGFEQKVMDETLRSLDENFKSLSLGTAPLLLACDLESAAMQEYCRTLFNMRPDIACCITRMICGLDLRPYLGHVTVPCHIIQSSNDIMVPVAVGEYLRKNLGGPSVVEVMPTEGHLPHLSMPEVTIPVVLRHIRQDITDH
ShHTL7 Y26F, sequence (A0A0M3PNA2 whole entry Y26F): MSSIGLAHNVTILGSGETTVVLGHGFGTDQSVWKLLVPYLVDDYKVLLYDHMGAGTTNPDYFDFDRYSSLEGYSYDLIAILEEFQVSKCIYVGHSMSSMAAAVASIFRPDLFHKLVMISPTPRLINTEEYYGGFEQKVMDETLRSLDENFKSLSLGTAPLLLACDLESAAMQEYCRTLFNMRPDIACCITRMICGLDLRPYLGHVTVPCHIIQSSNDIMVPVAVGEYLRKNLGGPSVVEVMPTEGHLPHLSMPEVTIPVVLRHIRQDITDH
ShHTL7 F134K, sequence (A0A0M3PNA2 whole entry F134K): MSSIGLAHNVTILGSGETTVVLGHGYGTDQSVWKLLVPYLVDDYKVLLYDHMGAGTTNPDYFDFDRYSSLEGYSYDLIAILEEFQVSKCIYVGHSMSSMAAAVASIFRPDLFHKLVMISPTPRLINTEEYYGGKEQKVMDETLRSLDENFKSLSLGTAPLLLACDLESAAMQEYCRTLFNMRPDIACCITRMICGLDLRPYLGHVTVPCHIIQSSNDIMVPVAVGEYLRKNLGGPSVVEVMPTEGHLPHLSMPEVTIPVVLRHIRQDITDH

## CC1=C[C@H](OC(=O)N2CCN(C(=O)COc3ccc(Br)cc3C)CC2)OC1=O [(S)-4a]
[1]
  IC50: 0.435 µM
[2]
  IC50: 0.233 µM
[3]
  IC50: 0.293 µM
[4]
  IC50: 0.666 µM
[5]
  IC50: 0.949 µM
[6]
  IC50: 0.613 µM
[7]
  IC50: 0.3 µM
[8]
  IC50: 0.531 µM
[9]
  IC50: 1.07 µM
[10]; [13]
  IC50: > 100 µM
[11]
  IC50: 0.347 µM
[12]
  IC50: 0.8 µM

## CC1=C[C@H](O/C=C2/C(=O)O[C@@H]3c4ccccc4C[C@H]23)OC1=O (racemic) [rac-GR24, reference compound]
[10]; source data of Fig. 4b and Supplementary Fig. 14, read-out: Competitive AtD14 inhibitory activity IC50, source data average
  IC50: 6.54 µM

## CC1=C[C@@H](OC(=O)N2CCN(C(=O)COc3ccc(Br)cc3C)CC2)OC1=O [(R)-4a]
[1]
  IC50: 1 µM
[2]
  IC50: 29.9 µM
[3]
  IC50: 43.7 µM
[4]
  IC50: 34.3 µM
[5]
  IC50: 23.3 µM
[6]
  IC50: 62.1 µM
[7]
  IC50: 1.88 µM
[8]
  IC50: 58.1 µM
[9]
  IC50: 4.69 µM
[10]; [13]
  IC50: > 100 µM
[11]
  IC50: 22 µM
[12]
  IC50: 4.9 µM

## CC1=CC(OC(=O)N2CCN(C(=O)COc3ccc(Br)cc3C)CC2)OC1=O (centres unmarked) [4a]
[10]; [13]
  IC50: > 100 µM
